{
  "source": "patent US20250176877A1",
  "about": "“SENSING PLATFORMS WITH NEEDLES AND METHODS OF FABRICATION AND USE” (Purdue Research Foundation, priority 2023, published 2025)",
  "system": "HL-1 cells",
  "conditions": "100 nM nifedipine, control without drug 0.85±0.17 mV",
  "protocol": "The surface of the sensing platform 10 was coated with a gelatin solution to ensure cell adhesion, and no additional functionalization agents were used. […] To further improve the adhesion of the needles 12 to the cell membrane, mechanoporation was conducted by centrifuging at 500 rpm for one minute. Electroporation was followed using a series of biphasic square pulses to facilitate electrical access to the intracellular region. […] In order to showcase the live imaging capabilities through the optical transparency of the sensing platform 10, concurrent calcium ion (Ca^2+) flux imaging was simultaneously performed using an inverted microscope—a standard tool that is compatible only with transparent substrates. For Ca^2+ flux imaging, Fluo-8, a fluorescent calcium indicator, was loaded into the cells for live imaging, and the alteration in fluorescent intensity (AF) was measured and compared with the resting intensity (F0).\nTo evaluate the signal quality of the sensing platform 10, a comparative analysis of signal amplitude was conducted in comparison to a control group including the needles on a Si wafer. The measurements were limited to the cells that had been beating at approximately 1 Hz for at least one day, as the recorded amplitude and beating interval can vary with cell culture age.",
  "data": [
    {"smiles": "COC(=O)C1=C(C)NC(C)=C(C(=O)OC)C1c1ccccc1[N+](=O)[O-]", "note": "[nifedipine]", "values": [
      {"measurement": "peak amplitude of action potential", "value": "0.55±0.12", "unit": "mV"}
    ]}
  ]
}
